Measurements reported in ChEMBL document CHEMBL1201862, “PubChem BioAssay data set” (2004).
Active and inactive are the calls of the source.

How the values were obtained:
[1] = cytotoxicity in HPDE-C7 cells, cell-based, fluorescence, HTS (AID 430); assay type: functional; conditions: Homo sapiens
[2] = cytotoxicity in KRAS-transformed pancreatic duct cells, primary screen, cell-based, fluorescence, HTS (AID 431); assay type: functional; conditions: Homo sapiens;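 note: cell line used: HPDE-C7K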
[3] = LGR2 antagonists, dose response, cell-based, HEK293, CRE-luciferase reporter, cherry pick, set 2 (AID 743343); assay type: functional;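 note: transfected cells were stimulated with diluted bursicon conditioned medium after compound addition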
[4] = MC4R antagonists, dose response, counter-screen for LGR2 antagonist project, cell-based, plate reader, cherry pick (AID 743444); assay type: functional;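 note: transfected HEK 293 cells stimulated with alpha-MSH peptide; potency of inhibitors of the alpha-MSH evoked signal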
[5] = HepG2 cell cytotoxicity, dose response, cytotoxicity control, plate reader, cherry-pick, antagonist series (AID 743416); assay type: functional, cell-based
[6] = Luminescence Cell-Based Dose Response to Identify Activators of 5'UTR Stem-Loop Driven Prion Protein mRNA Translation in H4-C Neuroglioblastoma Cells. [Related pubchem assays: 1829 (Project Summary), 1814 (Primary HTS)]; assay type: functional
[7] = Luminescence Cell-Based Dose Confirmation to Identify Activators of 5'UTR Stem-Loop Driven Alpha-Synuclein mRNA Translation in H4 Neuroglioblastoma Cells. [Related pubchem assays: 1829 (Project Summary), 1814 (Primary HTS)]; assay type: functional
H4 = assay: Luminescence Cell-Based Dose Response HTS to Identify Activators of 5'UTR Stem-Loop Driven Prion Protein mRNA Translation in H4 Neuroglioblastoma Cells. [Related pubchem assays: 1829 (Project Summary), 1814 (Primary HTS)]; assay type: functional; conditions: Homo sapiens
[8] = Luminescence Cell-Based Dose Response to Identify Activators of Luciferase Translation or Activity in H4-C Neuroglioblastoma Cells. [Related pubchem assays: 1829 (Project Summary), 1814 (Primary HTS)]; assay type: functional
[9] = Luminescence Cell-Based Dose Response HTS to Identify Activators of Luciferase Translation or Activity in H4 […] Cells. [Related pubchem assays: 1829 (Project Summary), 1814 (Primary HTS)]; assay type: functional
A-375 = assay: MITF: Counter assay: A375 proliferation Measured in Cell-Based System Using Plate Reader - 2084-03_Inhibitor_Dose_DryPowder_Activity. [Related pubchem assays (depositor defined):AID488944]; assay type: functional; conditions: Homo sapiens
[10] = target: T1, Microphthalmia-associated transcription factor (Homo sapiens, UniProt O75030); assay: TRPM1 promoter luciferase signal decrease, dose response, MITF inhibitor project, cell-based, SK-MEL-5, cherry-picked, set 3 (AID 493073); assay type: functional
T1 sequence (O75030 whole entry): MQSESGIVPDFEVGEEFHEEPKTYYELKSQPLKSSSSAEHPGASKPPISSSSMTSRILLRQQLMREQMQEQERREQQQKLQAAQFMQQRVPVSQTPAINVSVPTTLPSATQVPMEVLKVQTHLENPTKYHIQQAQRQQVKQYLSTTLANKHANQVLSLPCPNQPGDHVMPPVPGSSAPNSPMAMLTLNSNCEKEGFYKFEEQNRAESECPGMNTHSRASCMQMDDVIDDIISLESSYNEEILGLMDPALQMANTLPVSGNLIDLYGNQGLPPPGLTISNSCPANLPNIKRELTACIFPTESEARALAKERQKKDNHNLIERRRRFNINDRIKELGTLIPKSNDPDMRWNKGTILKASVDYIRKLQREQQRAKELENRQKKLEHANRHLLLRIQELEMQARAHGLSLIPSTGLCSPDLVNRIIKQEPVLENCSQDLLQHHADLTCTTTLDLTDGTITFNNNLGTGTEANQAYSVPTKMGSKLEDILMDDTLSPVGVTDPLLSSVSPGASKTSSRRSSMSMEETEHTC

[11] = A549 cell cytotoxicity, dose response, cytotoxicity control, plate reader, cherry-pick, antagonist series (AID 743412); assay type: functional, cell-based
Prothrombin = Prothrombin (Homo sapiens, UniProt P00734); assay: Thrombin 1536 HTS Dose Response Confirmation. [Related pubchem assays: 1046 (Thrombin 1536 HTS; hits were confirmed in this assay)]; assay type: functional
[12] = target: T2, Heat shock factor protein 1 (Mus musculus, UniProt P38532); assay: inhibition of MG132-induced HSE-luciferase signal, confirmation, cell-based, NIH3T3, luminescence, dose retest (AID 2382); assay type: functional;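 note: NIH3T3 fibroblasts with HSF1-driven luciferase reporter stressed by proteasome inhibitor MG132; luminescence from HSF1-driven luciferase expression after 8 hours of MG132 stress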
T2 sequence (P38532 whole entry): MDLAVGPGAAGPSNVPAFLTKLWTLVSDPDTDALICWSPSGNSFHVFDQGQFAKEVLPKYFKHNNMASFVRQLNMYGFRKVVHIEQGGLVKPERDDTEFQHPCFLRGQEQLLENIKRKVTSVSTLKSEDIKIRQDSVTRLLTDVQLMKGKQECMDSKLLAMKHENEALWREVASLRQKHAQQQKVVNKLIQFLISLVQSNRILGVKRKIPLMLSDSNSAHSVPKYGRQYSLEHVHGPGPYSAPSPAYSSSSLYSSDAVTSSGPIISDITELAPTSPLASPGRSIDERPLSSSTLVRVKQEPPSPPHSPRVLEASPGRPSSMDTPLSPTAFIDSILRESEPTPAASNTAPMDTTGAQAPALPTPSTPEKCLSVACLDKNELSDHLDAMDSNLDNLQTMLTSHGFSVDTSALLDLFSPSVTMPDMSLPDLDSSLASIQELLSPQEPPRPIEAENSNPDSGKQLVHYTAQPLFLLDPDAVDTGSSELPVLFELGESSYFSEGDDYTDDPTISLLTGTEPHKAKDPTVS

HEK293 = assay: inhibitors of LMP1-driven NF-kB reporter, dose response, cell-based, HEK293, luciferase, cherry-pick (AID 588343); assay type: functional; conditions: Homo sapiens

Structure (SMILES): CCCCc1ccc(Nc2nc(O)cc(CCC)n2)cc1
- EC50 [1]: 10.8 µM (active)
- EC50 [2]: 6.75 µM (active)

Structure (SMILES): O=C(O)c1cccc(-c2noc(-c3cccc(Cl)c3)n2)c1
- AC50 [3]: 5.67 µM (active)
- AC50 [4]: 7.56 µM (active)
- AC50 [5]: > 52 µM (inactive)

Structure (SMILES): Cc1[nH]c2ccccc2c1C(O)CN1CCN(c2cccc(C(F)(F)F)c2)CC1 (stereo not drawn)
- EC50 [1]: 7.14 µM (active)
- EC50 [2]: 6.67 µM (active)

Structure (SMILES): COCCn1c(C)cc(C(=O)COC(=O)c2ccc3ncsc3c2)c1C
- EC50 [6]: 1.09 µM (active)
- EC50 [7]: 0.364 µM (active)
- EC50 (H4): 0.132 µM (active)
- EC50 [8]: 0.343 µM (active)
- EC50 [9]: 0.155 µM (active)

Structure (SMILES): CC(=O)c1c(C)[nH]c(C(=O)NCCC2=CCCCC2)c1C
- EC50 [6]: 0.862 µM (active)
- EC50 [7]: 0.468 µM (active)
- EC50 (H4): 12.3 µM (active)
- EC50 [8]: > 12 µM (not active)
- EC50 [9]: < 0.1 µM (inconclusive)

Structure (SMILES): COC(=O)c1ccc(Nc2cc(C)nc3ccc(C)cc23)cc1
- AC50 (A-375): 36.8 µM (active)
- AC50 [10]: 6.85 µM (active)
- AC50 [11]: 4.31 µM (active)
- AC50 [5]: 13.2 µM (active)

Structure (SMILES): CC(Sc1nncn1C)C(=O)NCc1ccc2c(c1)OCO2 (stereo not drawn)
- IC50 (Prothrombin): > 50 µM (not active)

Structure (SMILES): CC(C)(C)c1ccc(Cn2c(=O)cnc3ccccc32)cc1
- AC50 [11]: 12.6 µM (active)
- AC50 [3]: 38 µM (active)
- EC50 [12]: 2.27 µM (active)
- AC50 (HEK293): 6.93 µM (active)
- AC50 [5]: 29.4 µM (active)

Structure (SMILES): Cc1cc(C(=O)CSc2n[nH]c(N)n2)c(C)n1-c1ccccc1
- EC50 [6]: 1.03 µM (active)
- EC50 [7]: 6.75 µM (active)
- EC50 (H4): 5.58 µM (active)
- EC50 [8]: 0.687 µM (active)
- EC50 [9]: < 0.1 µM (active)

Structure (SMILES): Cc1csc(NC(=O)c2cnc3ccccc3n2)n1
- AC50 [3]: 7.51 µM (active)
- AC50 [4]: 16.9 µM (active)
- AC50 [5]: > 52 µM (inactive)

Structure (SMILES): Cc1c(N(C)C(=O)C2CCCN2S(=O)(=O)c2ccccc2)c(=O)n(-c2ccccc2)n1C (stereo not drawn)
- IC50 (Prothrombin): > 50 µM (not active)

Structure (SMILES): N#C/C(=C\c1ccc[nH]1)Sc1nc2ccccc2s1
- EC50 [1]: > 20 µM (not active)
- EC50 [2]: > 20 µM (not active)
